# Assay results reported in PubChem BioAssay AID1259407 (Chemical Carcinogenesis Research Information System (CCRIS), 2018).
# The source made the active and inactive calls. How the calls were made is not given here.
# Tested on: CCRIS mutagenicity, Ames/micronucleus/aberration tests
# Test: CCRIS mutagenicity studies
# [1] = Test System: AMES SALMONELLA TYPHIMURIUM, Strain/Indicator: TA100, Metabolic Activation: NONE, Method: PREINCUBATION
# [2] = Test System: AMES SALMONELLA TYPHIMURIUM, Strain/Indicator: TA100, Metabolic Activation: NONE, Method: STANDARD PLATE
# [3] = Test System: AMES SALMONELLA TYPHIMURIUM, Strain/Indicator: TA98, Metabolic Activation: NONE, Method: PREINCUBATION
# [4] = Test System: AMES SALMONELLA TYPHIMURIUM, Strain/Indicator: TA100, Metabolic Activation: RAT, LIVER, S-9, AROCLOR 1254, Method: STANDARD PLATE
smiles,measurement,setting,value
COc1ccc(CC2CO2)cc1 (stereo unspecified),mutagenic call,[1],active; positive
same,mutagenic call,[2],active; positive
same,mutagenic call,"Test System: AMES SALMONELLA TYPHIMURIUM, Strain/Indicator: TA1535, Metabolic Activation: NONE, Method: PREINCUBATION",active; positive
same,mutagenic call,"Test System: AMES SALMONELLA TYPHIMURIUM, Strain/Indicator: TA1535, Metabolic Activation: NONE, Method: STANDARD PLATE",active; positive
OC1c2c(ccc3c2ccc2ccccc23)C2OC2C1O (stereo unspecified),mutagenic call,[3],active; positive
same,mutagenic call,"Test System: CHINESE HAMSTER V-79, Strain/Indicator: V-79/6-THIOGUANINE, Metabolic Activation: NONE",active; positive
CCCCCCCCCCCC[N+](C)(C)COCCCCCCCCC,mutagenic call,"Test System: BACILLUS SUBTILIS, Strain/Indicator: H17/REC, Metabolic Activation: NONE, Method: STANDARD PLATE",inactive; negative
same,mutagenic call,"Test System: BACILLUS SUBTILIS, Strain/Indicator: M45, Metabolic Activation: NONE, Method: STANDARD PLATE",inactive; negative
O[C@H]1C=Cc2c(ccc3cc4c5c(ccc4cc23)[C@H](O)[C@@H](O)C=C5)[C@@H]1O,mutagenic call,[4],inactive; negative
CC(C)(O)CCc1ccc(O)c2c(=O)c3c(O)c4c(cc3oc12)O[C@H]1OC=C[C@@H]41,mutagenic call,"Test System: AMES SALMONELLA TYPHIMURIUM, Strain/Indicator: TA98, Metabolic Activation: NONE, Method: STANDARD PLATE",active; positive
same,mutagenic call,"Test System: AMES SALMONELLA TYPHIMURIUM, Strain/Indicator: TA98, Metabolic Activation: RAT, LIVER, S-9, AROCLOR 1254, Method: STANDARD PLATE",active; positive
same,mutagenic call,[2],active; positive
same,mutagenic call,[4],active; positive
C/C(=C(\CCOC(=O)c1ccccc1)SC(=O)c1ccccc1)N(C=O)Cc1cnc(C)nc1N,mutagenic call,"Test System: AMES SALMONELLA TYPHIMURIUM, Strain/Indicator: TA97, Metabolic Activation: NONE, Method: PREINCUBATION",inactive; negative
same,mutagenic call,"Test System: AMES SALMONELLA TYPHIMURIUM, Strain/Indicator: TA97, Metabolic Activation: RAT, LIVER, S-9, AROCLOR 1254, Method: PREINCUBATION",inactive; negative
same,mutagenic call,"Test System: AMES SALMONELLA TYPHIMURIUM, Strain/Indicator: TA102, Metabolic Activation: NONE, Method: PREINCUBATION",inactive; negative
same,mutagenic call,"Test System: AMES SALMONELLA TYPHIMURIUM, Strain/Indicator: TA102, Metabolic Activation: RAT, LIVER, S-9, AROCLOR 1254, Method: PREINCUBATION",inactive; negative
O=C1c2ccccc2C(=O)c2c(O)cc(O)cc21,mutagenic call,[3],inactive; negative
same,mutagenic call,"Test System: AMES SALMONELLA TYPHIMURIUM, Strain/Indicator: TA98, Metabolic Activation: RAT, LIVER, S-9, PCB, Method: PREINCUBATION",active; positive
same,mutagenic call,[1],inactive; negative
same,mutagenic call,"Test System: AMES SALMONELLA TYPHIMURIUM, Strain/Indicator: TA100, Metabolic Activation: RAT, LIVER, S-9, PCB, Method: PREINCUBATION",active; positive
same,mutagenic call,"Test System: AMES SALMONELLA TYPHIMURIUM, Strain/Indicator: TA1537, Metabolic Activation: NONE, Method: PREINCUBATION",active; positive
same,mutagenic call,"Test System: AMES SALMONELLA TYPHIMURIUM, Strain/Indicator: TA1537, Metabolic Activation: RAT, LIVER, S-9, Method: PREINCUBATION",active; positive
same,mutagenic call,"Test System: CHINESE HAMSTER V-79, Strain/Indicator: V-79/8-AZAGUANINE, Metabolic Activation: NONE, Method: STANDARD PLATE",active; positive
same,mutagenic call,"Test System: CHINESE HAMSTER V-79, Strain/Indicator: V-79/8-AZAGUANINE, Metabolic Activation: PRIMARY RAT HEPATOCYTES, Method: STANDARD PLATE",active; positive
same,mutagenic call,"Test System: UDS RODENT HEPATOCYTES, Strain/Indicator: THY INCORP (NON-S-PHASE), Metabolic Activation: NONE, Method: AUTORADIOGRAPHY",active; positive
CN(C)C(=S)S,mutagenic call,[2],active; positive
same,mutagenic call,"Test System: AMES SALMONELLA TYPHIMURIUM, Strain/Indicator: TA100, Metabolic Activation: S-9 MIX, Method: STANDARD PLATE",inactive; negative
NS(=O)(=O)c1cccc2cccnc12,mutagenic call,"Test System: AMES SALMONELLA TYPHIMURIUM, Strain/Indicator: TA100, Metabolic Activation: S-9, Method: PREINCUBATION",inactive; negative
Cc1ccc2nc3c(c4c(c5ccccc53)O4)c(C)c2c1,mutagenic call,[2],active; positive
same,mutagenic call,[4],inactive; negative
